RP-LC retention time data for 79 molecules are collected here from the METLIN SMRT retention time set (Domingo-Almenara et al. 2019).

The data set can be described thus: gradient 5% acetonitrile 3 min, to 50% in 2 min, to 85% in 15 min, held 3 min, 100 µL/min. The following applies: column: Zorbax Extend-C18 2.1 x 50 mm; eluents: water / acetonitrile, 0.1% formic acid. The essentials:
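Standards, all pure, were combined into mixtures of ~100 molecules and run at 100 μL/min on a Zorbax Extend-C18 column (2.1 × 50 mm, 1.8 μm) with water and acetonitrile, each containing 0.1% formic acid. A coupled quadrupole time-of-flight mass spectrometer operated in positive and negative ionization mode. Retention time values come from computationally picked adduct peaks, each inspected manually.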
Consider `CCOC(=O)c1c(NC(=O)C2CCN(S(C)(=O)=O)CC2)sc2ccccc12`, for which the RP-LC retention time was determined as 979 s.

With `O=C(Nc1ccc(Cl)cc1)c1cc2c(cc1O)[nH]c1ccccc12`, the RP-LC retention time turned out to be 1210 s.

The molecule `Cc1csc(-c2ccc(N3CCN(C(=O)c4cc(F)ccc4F)CC3)nc2)n1` displayed an RP-LC retention time of 996 s.

With `CCSc1ccccc1C(=O)Nc1cccc2ccc(-n3ccnc3)nc12`, the RP-LC retention time worked out at 668 s.

Consider `Cc1ccc(C)c(N2CCN(c3ccnc(SCC(=O)Nc4ccccc4C)n3)CC2)c1`, for which the RP-LC retention time stood at 1010 s.

Take `Cc1cc(OCCCS(C)(=O)=O)cc(C)c1-c1cccc(COc2ccc3c(c2)OC[C@H]3CC(=O)O)c1`: the RP-LC retention time was 1040 s.

As to `CN(C)C(=O)c1ccc2oc(CN3CCN(C(=O)NCc4ccco4)CC3)nc2c1`, the RP-LC retention time was determined as 582 s.

Take `CC(C)CN1CCn2cc(S(=O)(=O)Nc3ccccc3F)cc2C1=O`: the RP-LC retention time came to 1320 s.

On to `COC(=O)c1ccc2c(=O)n(-c3cc(OC)cc(OC)c3)c(N3CCCC3)nc2c1`, for which the RP-LC retention time worked out at 920 s.

Regarding `CCN(CC)S(=O)(=O)c1ccc(C)c(NC(=O)c2ccccc2C(=O)O)c1`, the RP-LC retention time worked out at 575 s.

`COc1cccc(OC)c1C(=O)N1CCCC1c1c(C)noc1C` (centres undefined) showed an RP-LC retention time of 665 s.

Consider `CCCN1C(=O)COc2ccc(-c3noc(C(C)Oc4cccc(Cl)c4)n3)cc21` (centres undefined), for which the RP-LC retention time turned out to be 1260 s.

In turn, `CCc1ccc(-c2cc3c(=O)n(Cc4noc(CN5CCOCC5)n4)ccn3n2)cc1` showed an RP-LC retention time of 813 s.

In the case of `CCOC(=O)Cc1csc(NC(=O)C2CCCN(c3ncnc4c3nc3n4CCCCC3)C2)n1` (centres undefined), the RP-LC retention time was found to be 810 s.

Take `COc1ccc(NC(=O)Nc2c(-c3ccc(C)cc3)nc3ccccn23)cc1Cl`: the RP-LC retention time was determined as 712 s.

`Cn1c(=O)sc2cc(S(=O)(=O)N3CCC(C(=O)NCc4ccccc4Cl)CC3)ccc21`: the RP-LC retention time was 883 s.

For the molecule `COc1ccc(CCNC(=O)C2CCc3nc(N4CCC(C)CC4)ncc3C2)cc1OC` (centres undefined), the RP-LC retention time was 757 s.

Consider `Cc1ccc(CS(=O)(=O)N2CCC(CN3CCCC(C)C3)CC2)cc1C` (centres undefined), for which the RP-LC retention time came to 717 s.

For the molecule `CSc1ncc(Cl)c(C(=O)Nc2cc(C)on2)n1`, the RP-LC retention time was 783 s.

`Cc1ccc(CNC(=O)CC2CCOC3(CCN(S(C)(=O)=O)CC3)C2)o1` (centres undefined): the RP-LC retention time was 705 s.

Regarding `O=C(Cn1nc2ncccn2c1=O)NCc1ccco1`, the RP-LC retention time was 539 s.

Consider `O=C(NCCc1ccccc1)c1nnc(-c2ccc(S(=O)(=O)N3CCCC3)cc2)o1`, for which the RP-LC retention time is 916 s.

In turn, `O=C(Nc1ccc(-c2nnc3n2CCCC3)cc1)C1CC1` returned an RP-LC retention time of 609 s.

With `Cc1cccc(-c2ncccc2CNS(=O)(=O)Cc2ccccc2F)c1`, the RP-LC retention time amounted to 705 s.

For the molecule `CCc1nc2cc(-c3noc(-c4cccc5[nH]ccc45)n3)ccc2o1`, the RP-LC retention time came out at 1040 s.

In turn, `NS(=O)(=O)c1ccc(CCNC(=O)c2csc(-c3cnccn3)n2)cc1` displayed an RP-LC retention time of 622 s.

Molecule `Cn1c(=O)c(=O)n(C)c2cc(N3CCCC3)c(NC(=O)Cc3ccc(Cl)cc3)cc21` returned an RP-LC retention time of 685 s.

Turning to `O=C([C@@H]1C[C@H](Oc2cccnc2)CN1C(=O)CC1CCCC1)N1CCCC1`, the RP-LC retention time was 600 s.

For the molecule `Cc1cc(Cl)ccc1NC(=O)C1CCCN(S(=O)(=O)c2c[nH]c(C(=O)N3CCCC3)c2)C1` (centres undefined), the RP-LC retention time was found to be 852 s.

As for `Cn1cc2c(n1)c(=O)n(Cc1ccc(F)cc1)c1nn(Cc3ccccc3F)c(=O)n21`, the RP-LC retention time is 1020 s.

On to `Cc1nc(CNC(=O)[C@H]2CCCN2S(=O)(=O)c2ccc(Br)cc2)cs1`, for which the RP-LC retention time came out at 794 s.

`CCOc1ccc2nc(NC(=O)C3CCN(S(=O)(=O)c4cn(C(C)C)cn4)CC3)sc2c1` yielded an RP-LC retention time of 829 s.

For the molecule `CCCC(=O)N1CCN(c2ccc(=O)n(-c3ccc(C(C)C)cc3)n2)CC1`, the RP-LC retention time turned out to be 851 s.

`CCCn1cnc2cc(CNC(=O)Cc3c(Cl)cccc3Cl)ccc21` registered an RP-LC retention time of 666 s.

`Cc1ccc(-n2nc(N3CCCC(C(=O)Nc4cccc(C)c4C)C3)ccc2=O)cc1Cl` (centres undefined) gave an RP-LC retention time of 999 s.

Take `Cc1noc(C)c1S(=O)(=O)N1CCC(Cc2ccc(COc3ccncc3)cc2)CC1`: the RP-LC retention time turned out to be 831 s.

The molecule `COc1ccc(CCS(=O)(=O)NCC2(CO)CC2)cc1` showed an RP-LC retention time of 662 s.

Molecule `CCc1cccc(C)c1Nc1c(-c2ccccc2)nc2cnccn12` displayed an RP-LC retention time of 947 s.

As to `O=c1c2sccc2n(Cc2nc(-c3ccccc3)no2)c(=O)n1-c1ccc(F)cc1`, the RP-LC retention time amounted to 969 s.

The molecule `CCc1ccc(Nc2nc(C(=O)NCc3ccco3)nc3ccccc23)cc1` showed an RP-LC retention time of 808 s.

Turning to `CC(C)Oc1ccc(CNC(=O)C2CCN(c3cnc4nccnc4c3)CC2)cc1`, the RP-LC retention time is 683 s.

For the molecule `CCCNC(=O)N1CCCCCC1CN1CCC(C)CC1` (centres undefined), the RP-LC retention time came to 624 s.

`Nc1ccc2c(c1)CN1C(=O)c3ccccc3C1=N2` displayed an RP-LC retention time of 639 s.

`O=C(NCC(F)(F)F)c1ccc(N2CCCC2)nn1`: the RP-LC retention time turned out to be 570 s.

Take `COc1cc(OC)cc(-c2nnc(Cc3nc(-c4ccccc4Cl)no3)o2)c1`: the RP-LC retention time was 1020 s.

Regarding `CCc1noc(NC(C)=O)c1-c1ccc(OC)c(S(=O)(=O)Nc2ccc(S(N)(=O)=O)cc2)c1`, the RP-LC retention time came out at 655 s.

Molecule `Cc1cc2nc(C)c(=O)n(CC(=O)NCCCN(C)C3CCCCC3)c2cc1C` came in with an RP-LC retention time of 624 s.

The molecule `CCOC(=O)N1CCN(C(=O)CSc2nnc(C3COc4ccccc4O3)o2)CC1` (centres undefined) gave an RP-LC retention time of 762 s.

`CN1CCN(c2ccc(-c3ccc(NC(=O)c4cc(Cl)ccc4Cl)cc3)nn2)CC1` gave an RP-LC retention time of 646 s.

Turning to `CCn1c(CCC(=O)NCc2ccc(F)cc2)nc2c(C)cccc2c1=O`, the RP-LC retention time came to 848 s.

`Cc1nc2cc(N3CCCC(C(=O)Nc4ccc(N5CCOCC5)cc4)C3)cnc2nc1C` (centres undefined): the RP-LC retention time is 658 s.

Molecule `COc1ccccc1CNC(=O)C1CCCN(c2nnc3ccccn23)C1` (centres undefined) registered an RP-LC retention time of 652 s.

With `CCOC(=O)c1sc(NC(=O)c2cn(C)nc2OC)nc1C`, the RP-LC retention time turned out to be 767 s.

In turn, `CCCOc1nc2ccccc2nc1N1CCCC(C(=O)Nc2ccc(NC(C)=O)cc2)C1` (centres undefined) gave an RP-LC retention time of 968 s.

For `Cc1nn(C(C)C(=O)NCCN2CCCCCC2)c(=O)c2c(-n3cccc3)n(-c3ccccc3)nc12` (centres undefined), the RP-LC retention time came out at 736 s.

On to `CS(=O)(=O)Nc1ccc(C2(C(=O)NCc3ccco3)CCCCC2)cc1`, for which the RP-LC retention time turned out to be 806 s.

Molecule `COc1ccc(-c2csc3ncn(-n4c(C)ccc4C)c(=O)c23)cc1OC` showed an RP-LC retention time of 905 s.

`O=C(O)CCC1CCN(c2cc(NC3CC3)ncn2)CC1`: the RP-LC retention time amounted to 587 s.

Regarding `CCOC(=O)c1c(C)oc2nc(C)nc(N3CCN(c4ccccn4)CC3)c12`, the RP-LC retention time worked out at 654 s.

On to `O=C(Cc1ccc(Cl)cc1)NC1CCN(c2ccc(F)cc2)C1=O` (centres undefined), for which the RP-LC retention time stood at 853 s.

The molecule `O=C(Nc1cccnc1)c1cccc(S(=O)(=O)N2CCCCCC2)c1` displayed an RP-LC retention time of 631 s.

As for `O=C(NCC1CCN(C2CCCC2)CC1)C(=O)Nc1ccc(OC(F)(F)F)cc1`, the RP-LC retention time is 611 s.

For `Cc1ccc(CNC(=O)C2(C)Cn3nc(C(=O)NCc4ccc(F)cc4)cc3C(=O)N2C)cc1` (centres undefined), the RP-LC retention time is 783 s.

Molecule `CCCn1c(C(=O)NCCc2ccc(S(N)(=O)=O)cc2)cc2c(=O)n(C)c(=O)n(C)c21` had an RP-LC retention time of 631 s.

As for `COc1ccc(-c2cn3c(CC(=O)Nc4cc(C)ccc4C)csc3n2)cc1OC`, the RP-LC retention time worked out at 746 s.

`Cc1ccc(CNS(=O)(=O)c2cc(-c3cc(C(F)(F)F)[nH]n3)sc2C)o1` came in with an RP-LC retention time of 964 s.

Turning to `CC(=O)Oc1cc2c(s1)CCN(C(C(=O)C1CC1)c1ccccc1F)C2` (centres undefined), the RP-LC retention time was found to be 739 s.

Regarding `Cc1cc(C(=O)N2c3ccccc3CC2c2nc(C3CC3)no2)nn1C` (centres undefined), the RP-LC retention time was determined as 929 s.

`CCCn1ccc2sc(C)c(C(=O)NC3CCCCC3)c2c1=O` yielded an RP-LC retention time of 884 s.

In turn, `CCOC(=O)CNC(=O)NCC(c1cccnc1)c1c[nH]c2ccccc12` (centres undefined) registered an RP-LC retention time of 598 s.

In the case of `CCOC(=O)CCNC(=O)N1[C@H]2CC[C@@H]1c1cnc(-c3ccc(F)cc3)nc1C2`, the RP-LC retention time is 797 s.

As for `O=C1CC(c2noc(-c3ccc(F)cc3)n2)CN1c1ccc(F)cc1` (centres undefined), the RP-LC retention time amounted to 961 s.

Turning to `CN(Cc1ccccc1)C(=O)C1(c2ccc(NC(=O)C3CC3)cc2)CCCCC1`, the RP-LC retention time was found to be 1060 s.

For `CCOc1ccc(-c2csc(Nc3ccc(F)cn3)n2)cc1`, the RP-LC retention time came out at 1100 s.

As for `O=S(=O)(NCCN1CCN(c2ccc(Cl)cc2)CC1)c1ccc2c(c1)OCCO2`, the RP-LC retention time amounted to 620 s.

Molecule `CN(C)c1cc(OC2CCN(C(=O)c3cccc4[nH]ccc34)C2)ncn1` (centres undefined) had an RP-LC retention time of 622 s.

As to `CC(C)c1ccc(NC(=O)Cn2cnc3nc(N4CCCC(C(=O)NC5CC5)C4)sc3c2=O)cc1` (centres undefined), the RP-LC retention time worked out at 754 s.

Turning to `CCOC(=O)c1[nH]c2ccc(OC)cc2c1NC(=S)N1CCN(c2ccccn2)CC1`, the RP-LC retention time is 610 s.

Consider `COC(=O)CSc1nnc(CNC(=O)c2ccccc2F)n1Cc1ccccc1`, for which the RP-LC retention time stood at 683 s.
